From ChEMBL document CHEMBL5137035 (Eur J Med Chem, 2022)
pIC50: −log10 of the molar value.

Tests used:
[1] = target: T1, Dihydroorotate dehydrogenase (quinone), mitochondrial (Homo sapiens, UniProt Q02127); test: Inhibition of human N-terminal SUMO-tagged DHODH expressed in Escherichia coli BL21(DE3) at 100 nM using dihydroorotate as substrate by DCIP based microplate reader analysis relative to control
[2] = target: T1, Dihydroorotate dehydrogenase (quinone), mitochondrial; test: Inhibition of human N-terminal SUMO-tagged DHODH expressed in Escherichia coli BL21(DE3) using dihydroorotate substrate by DCIP based microplate reader analysis
[3] = target: T1, Dihydroorotate dehydrogenase (quinone), mitochondrial; test: Inhibition of human N-terminal SUMO-tagged DHODH expressed in Escherichia coli BL21(DE3) at 1 uM using dihydroorotate as substrate by DCIP based microplate reader analysis relative to control
[4] = Acute toxicity in BALB/c mouse assessed as decrease in body weight at 300 mg/kg, po measured for 14 days; assay type: organism-based; conditions: in vivo, 336 h, time 14 day
[5] = system: Kasumi 1; test: Antiproliferative activity against human Kasumi 1 cells expressing human DHODH assessed as reduction in cell viability measured after 96 hrs by MTT assay; assay type: functional, cell-based; conditions: Kasumi 1, 96 h
[6] = system: Raji; test: Antiproliferative activity against human Raji cells assessed as cell growth inhibition measured after 96 hrs by MTT assay; assay type: functional, cell-based
[7] = Cytotoxicity against human HCoEpiC cells expressing human DHODH assessed as reduction in cell viability measured after 96 hrs by MTT assay; assay type: toxicity, cell-based
[8] = Toxicity in BALB/c mouse assessed as animal death at 300 mg/kg, po measured for 14 days; assay type: organism-based; conditions: in vivo, 336 h, time 14 day
[9] = system: SUD4; test: Antiproliferative activity against human SU-DHL-4 cells expressing human DHODH assessed as reduction in cell viability measured after 96 hrs by MTT assay; assay type: functional, cell-based; conditions: SU-DHL-4, 96 h
[10] = system: KG-1; test: Antiproliferative activity against human KG-1 cells expressing human DHODH assessed as reduction in cell viability measured after 96 hrs by MTT assay; assay type: functional, cell-based; conditions: KG-1, 96 h
[11] = system: A-375; test: Antiproliferative activity against human A375 cells expressing human DHODH assessed as reduction in cell viability measured after 96 hrs by MTT assay; assay type: functional, cell-based; conditions: A-375, 96 h
[12] = system: HCT-116; test: Antiproliferative activity against human HCT-116 cells expressing human DHODH assessed as reduction in cell viability measured after 96 hrs by MTT assay; assay type: functional, cell-based; conditions: HCT-116, 96 h
[13] = system: U-937; test: Antiproliferative activity against human U-937 cells expressing human DHODH assessed as reduction in cell viability measured after 96 hrs by MTT assay; assay type: functional, cell-based; conditions: U-937, 96 h
[14] = Cytotoxicity against human HL7702 cells expressing human DHODH assessed as reduction in cell viability measured after 96 hrs by MTT assay; assay type: toxicity, cell-based; conditions: HL7702 (L02) cells expressing human DHODH
[15] = Acute toxicity in BALB/c mouse assessed as average body weight at 300 mg/kg, po measured after 14 days; assay type: organism-based; conditions: in vivo, 336 h, time 14 day
[16] = Renal toxicity in BALB/c mouse assessed as change in blood uric acid level at 300 mg/kg, po measured after 14 days by biochemical assay; assay type: organism-based; conditions: in vivo, 336 h, time 14 day
[17] = Hepatotoxicity in BALB/c mouse assessed as change in blood AST level at 300 mg/kg, po measured after 14 days by biochemical assay; assay type: toxicity, organism-based; conditions: in vivo, 336 h, time 14 day
[18] = Hepatotoxicity in BALB/c mouse assessed as change in blood ALT level at 300 mg/kg, po measured after 14 days by biochemical assay; assay type: toxicity, organism-based; conditions: in vivo, 336 h, time 14 day
[19] = Hepatotoxicity in BALB/c mouse assessed as change in blood ALP level at 300 mg/kg, po measured after 14 days by biochemical assay; assay type: toxicity, organism-based; conditions: in vivo, 336 h, time 14 day

T1 sequence (Q02127 whole entry): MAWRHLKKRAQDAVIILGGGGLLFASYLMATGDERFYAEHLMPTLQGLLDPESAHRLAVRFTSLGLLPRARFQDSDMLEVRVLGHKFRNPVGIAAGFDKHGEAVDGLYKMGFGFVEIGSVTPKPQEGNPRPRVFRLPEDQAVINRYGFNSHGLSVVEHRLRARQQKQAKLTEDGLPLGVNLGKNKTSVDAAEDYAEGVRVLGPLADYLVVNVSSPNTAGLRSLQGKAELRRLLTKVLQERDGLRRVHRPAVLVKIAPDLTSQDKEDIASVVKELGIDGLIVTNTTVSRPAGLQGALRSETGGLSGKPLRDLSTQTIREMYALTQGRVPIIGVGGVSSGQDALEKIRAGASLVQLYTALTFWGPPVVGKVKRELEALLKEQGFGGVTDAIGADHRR

Row | Structure (SMILES) | inhibition [1] [%] | pIC50 [2] | inhibition [3] [%] | other results
1 | COc1cccc(-c2cc(F)c(NC(=O)/C(C#N)=C(/C)O)cc2OCC(C)C)c1 | 77.6 | 7.52 | 96.2 | –
2 | CCCC(C)Oc1cc(NC(=O)/C(C#N)=C(/C)O)c(F)cc1-c1cccc(OC)c1 (centres undefined) | 86.5 | 7.84 | 98.4 | –
3 | CCC(C)Oc1cc(NC(=O)/C(C#N)=C(/C)O)c(F)cc1-c1ccc2ccccc2c1 (centres undefined) | 95.6 | 8.18 | 99.8 | Activity [4]: Toxic; pIC50 [5]: 6.89; pIC50 [6]: 7.73; IC50 at 96 h [7]: 4.71 µM; Activity [8]: Toxic; pIC50 [9]: 6.80; pIC50 [10]: 6.21; pIC50 [11]: 6.57; pIC50 [12]: 6.82; pIC50 [13]: 6.70; IC50 at 96 h [14]: 6.48 µM
4 | CCC(C)Oc1cc(NC(=O)/C(C#N)=C(/C)O)c(F)cc1-c1cccc(Cl)c1C (centres undefined) | 85.3 | 7.65 | 98 | –
5 | CCC(C)Oc1cc(NC(=O)/C(C#N)=C(/C)O)c(F)cc1-c1ccccc1C (centres undefined) | 78.6 | 7.51 | 96.6 | –
6 | CCC(C)Oc1cc(NC(=O)/C(C#N)=C(/C)O)c(F)cc1-c1ccc(C(F)(F)F)cc1 (centres undefined) | 34.1 | – | 77.2 | –
7 | CCC(C)Oc1cc(NC(=O)/C(C#N)=C(/C)O)c(F)cc1-c1cccc(F)c1 (centres undefined) | 83.6 | 7.57 | 97.2 | –
8 | C=CCOc1cc(NC(=O)/C(C#N)=C(/C)O)c(F)cc1-c1cccc(OC)c1 | 58.5 | – | 92.5 | –
9 | CCC(C)Oc1cc(NC(=O)/C(C#N)=C(/C)O)c(F)cc1-c1ccc(OC)cc1 (centres undefined) | 72.1 | 7.40 | 94.7 | –
10 | CCC(C)Oc1cc(NC(=O)/C(C#N)=C(/C)O)c(F)cc1-c1cc2ccccc2o1 (centres undefined) | 89.9 | 7.89 | 97.4 | –
11 | COc1cccc(-c2cc(F)c(NC(=O)/C(C#N)=C(/C)O)cc2OCc2c(F)cccc2Cl)c1 | 40.3 | – | 79.7 | –
12 | CCC(C)Oc1cc(NC(=O)/C(C#N)=C(/C)O)c(F)cc1-c1ccc2c(c1)OCO2 (centres undefined) | 83.1 | 7.54 | 96.9 | –
13 | C/C(O)=C(\C#N)C(=O)Nc1ccc(C(F)(F)F)cc1 | – | – | 71.2 | –
14 | CCC(C)Oc1cc(NC(=O)/C(C#N)=C(/C)O)c(F)cc1-c1cc(Cl)ccc1C (centres undefined) | 47.2 | – | 85.5 | –
15 | CCC(CC)Oc1cc(NC(=O)/C(C#N)=C(/C)O)c(F)cc1-c1cccc(OC)c1 | 84.6 | 7.79 | 98.1 | –
16 | CCC(C)Oc1cc(NC(=O)/C(C#N)=C(/C)O)c(F)cc1-c1cccc(C(F)(F)F)c1 (centres undefined) | 92.4 | 8.10 | 99.3 | Activity [15]: 17.3 g; pIC50 [5]: 6.30; pIC50 [6]: 7.34; IC50 at 96 h [7]: > 10 µM; pIC50 [9]: 6.52; pIC50 [10]: 6.00; Activity [16]: Toxic; pIC50 [11]: 6.30; pIC50 [12]: 6.57; Activity [17]: Toxic; Activity [18]: Toxic; Activity [19]: Toxic; pIC50 [13]: 6.25; IC50 at 96 h [14]: > 10 µM
17 | CCC(C)Oc1cc(NC(=O)/C(C#N)=C(/C)O)c(F)cc1-c1cccc(Cl)c1 (centres undefined) | 87.5 | 7.70 | 98.9 | –
18 | COc1cccc(-c2ccc(NC(=O)/C(C#N)=C(/C)O)cc2OC)c1 | 48.4 | – | 89.2 | –
19 | COc1cccc(-c2cc(F)c(NC(=O)/C(C#N)=C(/C)O)cc2OC(C)C)c1 | 87.7 | 7.86 | 96.6 | pIC50 [6]: 6.01
20 | CCC(C)Oc1cc(NC(=O)/C(C#N)=C(/C)O)c(F)cc1-c1ccc(F)c(F)c1 (centres undefined) | 80.1 | 7.52 | 97.5 | –
